The target in the assay is Keap1 (Homo sapiens, UniProt Q14145). The assay is described as follows: biolayer interferometry (Octet K2), biotinylated human Keap1 on the sensor. In kind it is binding. Background: In BLI a coated tip is dipped into the sample, and binding shifts an interference pattern.

This passage reports Kd results from publication PMC7972864, “Fucoxanthin Prevents 6-OHDA-Induced Neurotoxicity by Targeting Keap1” (Oxidative Medicine and Cellular Longevity, 2021).

Molecules are shown by their SMILES.

Keap1, sequence (Q14145 whole entry): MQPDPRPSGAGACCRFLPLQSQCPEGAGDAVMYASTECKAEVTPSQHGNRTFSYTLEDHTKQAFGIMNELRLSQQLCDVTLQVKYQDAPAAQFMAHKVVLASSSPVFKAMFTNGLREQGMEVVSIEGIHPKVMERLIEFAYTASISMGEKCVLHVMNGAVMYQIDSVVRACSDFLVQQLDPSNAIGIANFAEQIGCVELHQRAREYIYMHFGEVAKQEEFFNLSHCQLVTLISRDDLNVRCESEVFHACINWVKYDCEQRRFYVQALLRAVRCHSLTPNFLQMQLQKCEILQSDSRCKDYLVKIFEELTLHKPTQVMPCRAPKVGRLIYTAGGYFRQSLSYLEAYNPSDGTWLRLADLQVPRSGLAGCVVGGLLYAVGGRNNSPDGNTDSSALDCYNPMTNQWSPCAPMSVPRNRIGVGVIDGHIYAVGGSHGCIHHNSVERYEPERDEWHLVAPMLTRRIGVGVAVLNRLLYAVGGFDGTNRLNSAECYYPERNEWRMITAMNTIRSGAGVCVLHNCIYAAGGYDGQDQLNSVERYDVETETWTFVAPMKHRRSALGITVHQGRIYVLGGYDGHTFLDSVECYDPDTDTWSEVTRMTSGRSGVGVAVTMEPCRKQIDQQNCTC

In turn, `CC(=O)O[C@H]1CC(C)(C)C(=C=C/C(C)=C/C=C/C(C)=C/C=C/C=C(C)/C=C/C=C(\C)C(=O)C[C@@]23O[C@]2(C)C[C@@H](O)CC3(C)C)[C@](C)(O)C1` [FUC, fucoxanthin] came in with a Kd of 5.16E − 5.
